Series [1] relates to MCF7. Put plainly: Binding affinity to DNA in human MCF7 cells assessed as formation of nuclear DNA double strand breaks at 12 nM after 24 hrs by DAPI-staining based fluorescence microscopic analysis. It is filed as cell-based.
For the next series, the species on record is Bos taurus. The series is described as follows: Binding affinity to calf thymus DNA assessed as decrease in […] at 50 uM measured at 260 nm by UV-Vis spectrophotometric analysis.
Series [2] concerns MCF7. Put plainly: Induction of DNA damage-mediated apoptosis in human MCF7 cells assessed as increase in cleaved caspase-3 level at 8 to 16 nM after 24 hrs by DAPI staining based immunocytochemistry analysis. Format: cell-based.
The test system of series [3] is MCF7. The series is described as follows: Induction of DNA double strand breaks in human MCF7 cells assessed as activation of phosphorylated Chk2 at Thr68 residue after 24 hrs immunoblot analysis. It is filed as cell-based.
Series [4] relates to MCF7. The series is described as follows: Induction of DNA damage-mediated apoptosis in human MCF7 cells assessed as decrease in HDAC1 levels in nuclear fraction at 8 to 16 nM after 24 hrs by immunoblot analysis. Format: cell-based. On the technique in general: In western blotting, separated proteins are transferred to a membrane and probed.
For series [5], the system named is MCF7. Put plainly: Induction of DNA damage-mediated apoptosis in human MCF7 cells assessed as delocalization of HDAC3 from nuclear to cytoplasm at 8 to 16 nM after 24 hrs by DAPI staining based immunocytochemistry analysis. Format: cell-based.
Series [6] is described as follows: Cell cycle arrest in human MCF7 cells assessed as G0/G1 phase at 8 nM after 24 hrs by propidium iodide staining based FACS analysis (reference value: 43.9%). It is filed as functional. A general note: A flow cytometer gives signals particle by particle.
For series [7], the system named is MCF7. The series is described as follows: Induction of DNA damage-mediated apoptosis in human MCF7 cells assessed as cleaved PARP after 24 hrs by immunoblot analysis. Format: cell-based.
The nature of series [8]: Cell cycle arrest in human MCF7 cells assessed as S phase at 12 nM after 24 hrs by propidium iodide staining based FACS analysis (reference value: 27.5%). Format: functional.
Series [9] in a line: Cell cycle arrest in human MCF7 cells assessed as G0/G1 phase at 12 nM after 24 hrs by propidium iodide staining based FACS analysis (reference value: 43.9%). Format: functional.
Series [10] relates to MCF7. The series is described as follows: Induction of DNA double strand breaks in human MCF7 cells assessed as H2AX phosphorylation at near IC50 after 24 hrs by Western blot analysis. Format: cell-based.
Series [11] relates to MCF7. Put plainly: Induction of DNA damage-mediated apoptosis in human MCF7 cells assessed as decrease in HDAC2 expression in cytoplasmic fraction at 8 to 16 nM after 24 hrs by immunoblot analysis. It is filed as cell-based.
Series [12] concerns MCF7. Put plainly: Induction of apoptosis in human MCF7 cells assessed as early apoptotic cells at 12 nM after 24 hrs by Annexin V-FITC/propidium iodide-dual staining based FACS analysis (reference value: 2.3%). It is filed as functional.
Series [13] in a line: Cytotoxicity against human HaCaT cells assessed as cell growth inhibition after 24 hrs by MTT assay. It is filed as toxicity, cell-based. Background: Tetrazolium dyes change colour on reduction, which living cells bring about.
For series [14], the system named is MCF7. Put plainly: Disruption of mitochondrial membrane potential in human MCF7 cells assessed as decrease in red/green fluorescence ratio at 8 to 16 nM after 24 hrs by JC1-staining based fluorescent microscopic analysis. It is filed as functional, cell-based.
Series [15] has as its system MCF7. The series is described as follows: Induction of apoptosis in human MCF7 cells assessed as late apoptotic cells at 8 nM after 24 hrs by Annexin V-FITC/propidium iodide-dual staining based FACS analysis (reference value: 0.1%). It is filed as functional.
In series [16] the test system is MCF7. Put plainly: (§1) Cytotoxicity against human MCF7 ER positive, PR positive/negative,HER2 negative cells assessed as cell growth inhibition after 24 hrs by MTT assay. It is filed as functional, cell-based.
The nature of series [17]: as §1. It is filed as functional, cell-based. The conditions noted are these: MCF7, 24 h.
Series [18] concerns MCF7. The series is described as follows: Induction of DNA damage-mediated apoptosis in human MCF7 cells assessed as increase in Bax/Bcl2 ratio after 24 hrs by immunoblot analysis. It is filed as cell-based.
The subject of series [19] is MCF7. Put plainly: Antiproliferative activity against human MCF7 cells assessed as effect on cellular morphology after 24 hrs by phase contrast microscopic method. It is filed as functional, cell-based.
Series [20] is described as follows: Cell cycle arrest in human MCF7 cells assessed as G2/M phase at 8 nM after 24 hrs by propidium iodide staining based FACS analysis (reference value: 28.3%). Format: functional.
In series [21] the test system is MCF7. The series is described as follows: Induction of DNA damage-mediated apoptosis in human MCF7 cells assessed as increase in Rb-E2F1 interaction at 8 to 16 nM after 24 hrs by co-immunoprecipitation analysis. It is filed as cell-based.
Series [22] has as its system MCF7. Put plainly: Induction of DNA damage-mediated apoptosis in human MCF7 cells assessed as activation of ERK1/2 at 12 nM up to 6 hrs by immunoblot analysis. Format: cell-based.
Series [23] is described as follows: Cytotoxicity against human SKBR3 ER negative, PR negative,HER2 positive cells assessed as cell growth inhibition after 24 hrs by MTT assay. It is filed as functional, cell-based. The conditions noted are these: SK-BR-3, 24 h.

Calls of active or inactive are those of the source. The rule behind the calls is not given here.

With `O=c1cc(OCc2ccccc2)c2ccc3ccccc3c2[nH]1`, the result with MCF7 [1], in the series filed under Bos taurus, with MCF7 [2], in the series with MCF7 [4], with MCF7 [5] and in the series on MCF7 [10] was Active. Moreover, the outcome with MCF7 [11], in the series with MCF7 [14], with MCF7 [21] and in the series on MCF7 [22] was Active. The Activity entry was “Dose-dependent effect” with MCF7 [3]; 55.1% in series [6]; “Dose-dependent effect” in the series on MCF7 [7]; 25.1% in [8]; 58.1% in series [9]; 39% in the series with MCF7 [12]. The Activity in the series with MCF7 [15] was 7.2%; with MCF7 [18] it was “Dose-dependent effect”; in the series on MCF7 [19], “Dose-dependent effect”; in series [20], 19%. Moreover, the IC50 (usually the concentration needed to halve the response being measured) at 24 h in series [13] was > 100000 nM. Besides, the “growth inhibition (GI)” value with MCF7 [16] is “Dose-dependent effect”. The figures for the IC50 in series [17] and in series [23] were 12 nM and 23.7 nM, respectively.

The values are drawn from ChEMBL document CHEMBL3871282, “Neo-tanshinlactone D-ring modified novel analogues induce apoptosis in human breast cancer cell via DNA damage” (Bioorg Med Chem, 2017).
